Patent US11083717B2, “Compositions and methods for drug sensitization of parasites” (The Texas A&M University System, priority 2015, dated 2021)
Like-named read-outs stand apart in the source and are kept apart here.

Columns and labels:
S. cerevisiae = experiment: in vitro; details: Saccharomyces cerevisiae
Excerpt: (§1) These tests included an IL-12 mouse model test to determine compound efficacy, verification of MIC50 for CP, cytotoxicity test for fibroblasts and yeast to determine potential toxic effects, a Human ether-a-go-go-related gene (hERG) test to determine potential cardiotoxicity, an AMES test tp determine mutagenic potential, a Safety Screen 44 test to determine common negative off-target drug interastion (Eurofins Cerep, SA, France), a cytochrome P450 (CYP) test to determine potential liver toxicity, a maximum tolerated dose, test, a Pharmacokinetics (PK) test to determine fate of the substance administered to a living organism tests for plasma stability in human and mouse, to measure the degradation of compound in plasma MClint and HClint test to determine in vitro intrinsic clearance for Mouse and Human, and kinetic solubility and plasma protein binding tests in mouse and human.

human fibroblast = experiment: in vitro
Excerpt: as §1

Row | SMILES | concentrations at which not toxic, S. cerevisiae cytotoxicity testing (S. cerevisiae) [µM] | concentrations at which not toxic, human fibroblast cytotoxicity testing (human fibroblast; human) [µM] | concentrations at which not toxic, human fibroblast cytotoxicity testing (human fibroblast) [µM]
1 | CCOC(=O)[C@@H](C)Oc1ccc(Oc2nc3ccc(F)cc3s2)cc1 [NZ-251, ethyl (2R)-2-{4-[(6-fluoro-1,3-benzothiazol-2-yl)oxy]phenoxy}propanoate] | ≥ 100 | ≥ 100 | –
2 | CONC(=O)c1cc2ccc(Oc3ccccc3)cc2oc1=O [NZ-320, N-methoxy-2-oxo-7-phenoxy-2H-chromene-3-carboxamide] | ≥ 100 | ≥ 100 | –
3 | O=C(O)COc1ccc(Oc2nc3ccc(F)cc3s2)cc1 [NZ-304, 2-{4-[(6-fluoro-1,3-benzothiazol-2-yl)oxy]phenoxy}acetic acid] | ≥ 100 | ≥ 100 | –
4 | CONC(=O)Cc1ccc(Oc2cnc3cc(Cl)ccc3n2)cc1 [NZ-301, 2-{4-[(6-chloroquinoxalin-2-yl)oxy]phenyl}-N-methoxyacetamide] | ≥ 100 | – | ≥ 100
5 | CONC(=O)C(C)c1ccc(Oc2nc3ccc(Cl)cc3s2)cc1 (stereo not shown) [NZ-313, 2-{4-[(6-chloro-1,3-benzothiazol-2-yl)oxy]phenyl}-N-methoxypropanamide] | ≥ 100 | ≥ 100 | –
6 | O=C(O)Cc1ccc(Oc2nc3ccc(Cl)cc3s2)cc1 [NZ-287, 2-{4-[(6-chloro-1,3-benzothiazol-2-yl)oxy]phenyl}acetic acid] | ≥ 100 | ≥ 100 | –
7 | CC(C)NC(=O)Nc1ccc(Oc2nc3cc(Cl)c(Cl)cc3s2)cc1 [NZ-393, 1-{4-[(5,6-dichloro-1,3-benzothiazol-2-yl)oxy]phenyl}-3-(propan-2-yl)urea] | ≥ 100 | – | ≥ 100
8 | CC(C)(C)OC(=O)Nc1ccc(Oc2nc3ccc(F)cc3s2)cc1 [NZ-412, tert-butyl N-{4-[(6-fluoro-1,3-benzothiazol-2-yl)oxy]phenyl}carbamate] | ≥ 100 | ≥ 100 | –
9 | CC(C)NC(=O)COc1ccc(Oc2cnc3cc(Cl)ccc3n2)cc1 [NZ-307, 2-{4-[(6-chloroquinoxalin-2-yl)oxy]phenoxy}-N-(propan-2-yl)acetamide] | ≥ 100 | – | ≥ 100
10 | CC(C)(Oc1ccc(Oc2cnc3cc(Cl)ccc3n2)cc1)C(=O)O [NZ-315, 2-{4-[(6-chloroquinoxalin-2-yl)oxy]phenoxy}-2-methylpropanoic acid] | ≥ 100 | – | ≥ 100
11 | CNC(=O)Cc1ccc(Oc2cnc3cc(Cl)ccc3n2)cc1O [NZ-402, 2-{4-[(6-chloroquinoxalin-2-yl)oxy]-2-hydroxyphenyl}-N-methylacetamide] | ≥ 100 | – | ≥ 100
12 | CC(C)NC(=O)Nc1ccc(Oc2nc3cc(Cl)ccc3s2)cc1 [NZ-376, 1-{4-[(5-chloro-1,3-benzothiazol-2-yl)oxy]phenyl}-3-(propan-2-yl)urea] | ≥ 100 | – | ≥ 100
13 | NCCC(=O)Nc1ccc(Oc2nc3ccc(F)cc3s2)cc1 [NZ-416, 3-amino-N-{4-[(6-fluoro-1,3-benzothiazol-2-yl)oxy]phenyl}propanamide] | ≥ 100 | ≥ 100 | –
14 | CC(C(=O)O)c1ccc(Oc2nc3ccc(F)cc3s2)cc1 (stereo not shown) [NZ-329, 2-{4-[(6-fluoro-1,3-benzothiazol-2-yl)oxy]phenyl}propanoic acid] | ≥ 100 | ≥ 100 | –
15 | CC(C)NC(=O)Nc1ccc(Oc2nc3ccc(Cl)cc3s2)c[n+]1[O-] [NZ-391, 1-{5-[(6-chloro-1,3-benzothiazol-2-yl)oxy]-1-oxo-1λ^5-pyridin-2-yl}-3-(propan-2-yl)urea] | ≥ 100 | ≥ 100 | –
16 | COc1ccc2nc(Oc3ccc(C(C)C(=O)O)cc3)sc2c1 (stereo not shown) [NZ-334] | ≥ 100 | ≥ 100 | –
17 | O=C(COc1ccc(Oc2cnc3cc(Cl)ccc3n2)cc1)NOCC1CC1 [NZ-323, 2-{4-[(6-chloroquinoxalin-2-yl)oxy]phenoxy}-N-(cyclopropylmethoxy)acetamide] | ≥ 100 | – | ≥ 100
18 | CC(C)NC(=O)Cc1ccc(Oc2nc3cc(F)c(F)cc3s2)cc1O [NZ-407, 2-{4-[(5,6-difluoro-1,3-benzothiazol-2-yl)oxy]-2-hydroxyphenyl}-N-(propan-2-yl)acetamide] | ≥ 100 | ≥ 100 | –
19 | CNC(=O)Cc1ccc(Oc2nc3ccc(Cl)cc3s2)cc1OC [NZ-392, 2-{4-[(6-chloro-1,3-benzothiazol-2-yl)oxy]-2-methoxyphenyl}-N-methylacetamide] | ≥ 100 | – | ≥ 100
20 | COC(=O)Cn1ccc(Oc2nc3ccc(Cl)cc3s2)cc1=O [NZ-396, methyl 2-{4-[(6-chloro-1,3-benzothiazol-2-yl)oxy]-2-oxo-1,2-dihydropyridin-1-yl}acetate] | ≥ 100 | ≥ 100 | –
21 | CNC(=O)Cn1ccc(Oc2nc3ccc(F)cc3s2)cc1=O [NZ-419, 2-{4-[(6-fluoro-1,3-benzothiazol-2-yl)oxy]-2-oxo-1,2-dihydropyridin-1-yl}-N-methylacetamide] | ≥ 100 | ≥ 100 | –
22 | COC(=O)Cc1ccc(Oc2nc3ccc(F)cc3s2)cc1 [NZ-294, methyl 2-{4-[(6-fluoro-1,3-benzothiazol-2-yl)oxy]phenyl}acetate] | ≥ 100 | ≥ 100 | –
23 | CC(C(=O)N1CCN(CC(F)(F)F)CC1)c1ccc(Oc2nc3ccc(Cl)cc3s2)cc1 (stereo not shown) [NZ-512] | ≥ 100 | ≥ 100 | –
